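Test compounds were applied to cells in 96-well plates for 48 hours at 5 doses. Here, GI50 denotes the concentration required for 50% inhibition of growth. Definition used: TGI = concentration required for complete inhibition of growth.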
Columns and labels:
Assay in all cases: NCI-60 cell line screen, 48 h
HOP-92 NSCLC = test system: HOP-92 NSCLC
OVCAR-4 ovarian = test system: OVCAR-4 ovarian
U251 CNS = test system: U251 CNS
M14 melanoma = test system: M14 melanoma
ACHN renal = test system: ACHN renal
NCI-H460 lung = test system: NCI-H460 lung
NCI-H23 lung = test system: NCI-H23 lung
SN12C renal = test system: SN12C renal
MALME-3M melanoma = test system: MALME-3M melanoma
HS 578T breast = test system: HS 578T breast

Row | Compound | GI50 (HOP-92 NSCLC) [µM] | TGI (HOP-92 NSCLC) [µM] | GI50 (OVCAR-4 ovarian) [µM] | TGI (OVCAR-4 ovarian) [µM] | GI50 (U251 CNS) [µM] | TGI (U251 CNS) [µM] | GI50 (M14 melanoma) [µM] | TGI (M14 melanoma) [µM] | GI50 (ACHN renal) [µM] | TGI (ACHN renal) [µM] | GI50 (NCI-H460 lung) [µM] | TGI (NCI-H460 lung) [µM] | GI50 (NCI-H23 lung) [µM] | TGI (NCI-H23 lung) [µM] | GI50 (SN12C renal) [µM] | TGI (SN12C renal) [µM] | GI50 (MALME-3M melanoma) [µM] | TGI (MALME-3M melanoma) [µM] | GI50 (HS 578T breast) [µM] | TGI (HS 578T breast) [µM]
1 | Nc1nc(N)c2nc3c(nc2n1)CCCCCCCCCC3 | 3.23 | > 100 | > 100 | > 100 | 2.71 | > 100 | 0.544 | > 100 | 2.98 | > 100 | 0.358 | > 100 | 2.86 | > 100 | 7.04 | > 100 | 4.48 | > 100 | 3.63 | > 100
2 | CC1OC(CC(=O)O)CC2=C1C(=O)c1c(O)cccc1C2=O (stereo not given) | – | 0.331 | – | 0.742 | – | 2.38 | – | 0.389 | – | 0.658 | – | 3.58 | – | 1.51 | – | 0.716 | – | 0.495 | – | 0.452
3 | NC(CSSCC(N)C(=O)O)C(=O)O (stereo not given) | > 100 | > 100 | > 100 | > 100 | > 100 | > 100 | > 100 | > 100 | > 100 | > 100 | > 100 | > 100 | > 100 | > 100 | > 100 | > 100 | > 100 | > 100 | > 100 | > 100
4 | Cc1ccc(C2NC(=O)c3ccccc3N2)c(C)c1 (stereo not given) | – | > 95.7 | – | > 59.7 | – | > 39.5 | – | 40 | – | > 100 | – | > 100 | – | > 87 | – | > 86.5 | – | > 69.1 | – | 6.78
5 | CN(C)c1cccc(F)c1C(=O)NC(=O)Nc1ccc(Cl)cc1 | – | > 100 | – | > 100 | – | > 100 | – | > 100 | – | > 100 | – | > 100 | – | > 100 | – | > 100 | – | > 100 | – | > 22.3
6 | COCCOCCOCc1n(Cc2ccc3ccccc3n2)c2ccccc2[n+]1Cc1ccc2ccccc2n1 | 0.217 | 2.74 | 0.373 | 13.3 | 0.354 | 12.9 | 1.56 | 12.8 | 13.7 | 81.7 | 1.87 | 12.4 | 0.657 | 12.2 | 0.306 | 11.1 | 0.658 | 8.67 | 2.16 | 21
7 | CC(C)(C)N/N=C(\C(=O)NC1=C(Cl)C(=O)c2ccccc2C1=O)C1C=CCS1(=O)=O (stereo not given) | – | 33 | – | 30.7 | – | > 100 | – | 23.7 | – | 55.3 | – | 22 | – | 24.2 | – | 31.6 | – | 6.44 | – | 64.8
